# From patent publication US20140220690A1, “MAMMALIAN GENES INVOLVED IN INFECTION” (priority 2009, published 2014)
# Tests used:
# [1] = test system: vaccinia virus
# [2] = test system: herpes simplex virus; assay type: cell-based
Structure (SMILES),% Effectiveness [1] [%],Effective [1],Effective [uM] [1] [µM],inhibition of vaccinia virus infection (in words) [1],spread of virus over time [1],state of the cells [1],reversal of the antiviral effect of anisomycin [2]
CC(C)(c1ccc(OCC2CO2)cc1)c1ccc(OCC2CO2)cc1 (stereo not drawn) [BADGE],75,✓,50 to 100,inhibited infection with vaccinia virus,–,–,–
"C[C@]12CC[C@@H]3c4ccc(O)cc4CC[C@H]3[C@@H]1CC[C@@H]2O [17-B Estradiol, 17-B-Estradiol]",50,✓,100,inhibited infection with vaccinia virus,–,–,–
C[C@]12CC[C@H](O)CC1=CC[C@@H]1[C@@H]2CC[C@]2(C)C(=O)CC[C@@H]12 [DHEA],99,✓,30,inhibited infection with vaccinia virus,the virus usually starts to spread after day 2,–,–
"COc1ccc(C[C@@H]2NC[C@@H](O)[C@@H]2OC(C)=O)cc1 [ANISOMYCIN, [(2S,3R,4R)-4-hydroxy-2-[(4-methoxyphenyl)methyl]pyrrolidin-3-yl]acetate]",–,–,–,–,–,the cells were healthy,–
N#CC(=C(/N)Sc1ccccc1N)/C(C#N)=C(\N)Sc1ccccc1N [U0126],–,–,–,–,–,–,this effect was reversed
